Assay results from PubChem BioAssay AID328 (DTP/NCI, 2004).
“And” between values parts separate entries of the source, which are not always exact repeats. Equal entries are not always repeated. Toxic doses and inconclusive results are not listed.

Test system: BDF1 mice, P388 leukemia ip, median survival T/C
Assay: NCI In Vivo Anticancer Drug Screen. Data for tumor model P388 Leukemia (intraperitoneal) in B6D2F1 (BDF1) mice
Conditions: endpoint: median survival time, higher = longer survival
How it was run: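 Survival ratio, drug arm over vehicle arm, in mice with a transplanted tumour.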

[1] = dose: 6.25 mg/kg/injection, schedule: Q01DX009 (ip), vehicle: saline
[2] = dose: 12.5 mg/kg/injection, schedule: Q01DX009 (ip), vehicle: saline
[3] = dose: 25.0 mg/kg/injection, schedule: Q01DX009 (ip), vehicle: saline
[4] = dose: 100.0 mg/kg/injection, schedule: Q01DX009 (ip), vehicle: saline with Tween-80
[5] = dose: 200.0 mg/kg/injection, schedule: Q01DX009 (ip), vehicle: saline with Tween-80
[6] = dose: 100.0 mg/kg/injection, schedule: Q04DX003 (ip), vehicle: saline with Tween-80
[7] = dose: 200.0 mg/kg/injection, schedule: Q04DX003 (ip), vehicle: saline with Tween-80
[8] = dose: 100.0 mg/kg/injection, schedule: Q01DX001 (ip), vehicle: saline with Tween-80
[9] = dose: 200.0 mg/kg/injection, schedule: Q01DX001 (ip), vehicle: saline with Tween-80
[10] = dose: 400.0 mg/kg/injection, schedule: Q01DX001 (ip), vehicle: saline with Tween-80
[11] = dose: 100.0 mg/kg/injection, schedule: Q01DX009 (ip), vehicle: Klucel (hydroxypropylcellulose) (HPC)
[12] = dose: 100.0 mg/kg/injection, schedule: Q04DX003 (ip), vehicle: Klucel (hydroxypropylcellulose) (HPC)
[13] = dose: 200.0 mg/kg/injection, schedule: Q01DX009 (ip), vehicle: Klucel (hydroxypropylcellulose) (HPC)
[14] = dose: 200.0 mg/kg/injection, schedule: Q04DX003 (ip), vehicle: Klucel (hydroxypropylcellulose) (HPC)
[15] = dose: 400.0 mg/kg/injection, schedule: Q04DX003 (ip), vehicle: Klucel (hydroxypropylcellulose) (HPC)
[16] = dose: 50.0 mg/kg/injection, schedule: Q01DX009 (ip), vehicle: saline with Tween-80

For C[N+]1=C2CCCCC2=C(N)CC1, the T/C [1] was 110 % of control, the T/C (dose: 6.25 mg/kg/injection, schedule: Q04DX003 (ip), vehicle: saline sonified) was 100 % of control and the T/C [2] was 100 % of control. For the same compound, the T/C (dose: 12.5 mg/kg/injection, schedule: Q04DX003 (ip), vehicle: saline sonified) was 100 % of control, the T/C [3] was 110 % of control and the T/C (dose: 25.0 mg/kg/injection, schedule: Q04DX003 (ip), vehicle: saline sonified) was 100 % of control.

COC(=O)c1ccc(-c2cc(Cl)c3cc(S(=O)(=O)F)ccc3n2)cc1 was tested, and the T/C [4] was 90 % of control and the T/C [5] was 90 % of control.

For OC(Cc1nc(-c2ccccc2)c(-c2ccccc2)s1)(C(F)(F)F)C(F)(F)F, the T/C [6] was 100 % of control, the T/C [7] was 104 % of control and the T/C (dose: 400.0 mg/kg/injection, schedule: Q04DX003 (ip), vehicle: saline with Tween-80) was 100 % of control.

With CCCCc1cc(O)c2c(c1O)C(=O)c1ccccc1C2=O the T/C [8] was 104 % of control, the T/C [9] was 104 % of control and the T/C [10] was 90 % of control.

CN(C)c1ccc(Cc2ccc(N(C)C)nc2)cn1 was tested, and the T/C [11] was 100 % of control, the T/C [12] was 95 % of control and the T/C [13] was 110 % of control. For the same compound, the T/C [14] was 100 % of control, the T/C (dose: 400.0 mg/kg/injection, schedule: Q01DX009 (ip), vehicle: Klucel (hydroxypropylcellulose) (HPC)) was 100 % of control and the T/C [15] was 95 % of control.

With O=C(Nc1ccc(C2=NCCN2)cc1)Nc1cccc(NC(=O)Nc2ccc(C3=NCCN3)cc2)c1 the T/C (dose: 60.0 mg/kg/injection, schedule: Q01DX010 (ip), vehicle: saline) was 185 % of control and 190 % of control, the T/C (dose: 120.0 mg/kg/injection, schedule: Q01DX010 (ip), vehicle: saline) was 185 % of control and the T/C (dose: 240.0 mg/kg/injection, schedule: Q01DX010 (ip), vehicle: saline) was 245 % of control and 220 % of control. The T/C (dose: 480.0 mg/kg/injection, schedule: Q01DX010 (ip), vehicle: saline) was 120 % of control.

Cc1cc(=O)[nH]c(N/N=C/c2ccco2)n1 was tested, and the T/C (dose: 12.5 mg/kg/injection, schedule: Q01DX009 (ip), vehicle: gum acacia) was 108 % of control, the T/C (dose: 25.0 mg/kg/injection, schedule: Q01DX009 (ip), vehicle: gum acacia) was 104 % of control and the T/C (dose: 50.0 mg/kg/injection, schedule: Q01DX009 (ip), vehicle: gum acacia) was 108 % of control. The T/C (dose: 100.0 mg/kg/injection, schedule: Q04DX003 (ip), vehicle: gum acacia) was 109 % of control and the T/C (dose: 200.0 mg/kg/injection, schedule: Q04DX003 (ip), vehicle: gum acacia) was 118 % of control.

For Clc1ccc2c(c1)nnn2OC1CCCC1, the T/C [16] was 97 % of control, the T/C [4] was 88 % of control and the T/C [5] was 90 % of control.

With O=C(Nc1ccc(F)cc1)Nc1cccc2ccccc12 the T/C [8] was 90 % of control, the T/C [9] was 90 % of control and the T/C [10] was 90 % of control.

For Nc1nc(N)c2cc(CNc3ccc(C(=O)NC(C(=O)O)C(=O)O)cc3)ccc2n1, the T/C (dose: 0.15 mg/kg/injection, schedule: Q01DX009 (ip), vehicle: saline) was 163 % of control.

In the case of COc1cc(C(=O)C=C(C(F)(F)F)C(F)(F)F)cc(OC)c1OC, the T/C (dose: 50.0 mg/kg/injection, schedule: Q04DX003 (ip), vehicle: saline with Tween-80) is reported as 120 % of control, the T/C [6] is reported as 120 % of control and the T/C [7] is reported as 100 % of control.

For CN(C)c1ccc(/C=C\c2cc(=O)[nH]c3ccccc23)cc1, the T/C [12] was 87 % of control, the T/C [14] was 91 % of control and the T/C [15] was 87 % of control.

COc1ccc(CC2c3cc(OC)c(OC)cc3CCN2C(C)=O)cc1OC (configuration not stated) was tested, and the T/C (dose: 50.0 mg/kg/injection, schedule: Q01DX005 (ip), vehicle: saline with Tween-80) was 90 % of control and the T/C (dose: 200.0 mg/kg/injection, schedule: Q01DX005 (ip), vehicle: saline with Tween-80) was 88 % of control.

With CCOC(=O)C1CCCN1C(=O)c1c2nc3c(C(=O)N4CCCC4C(=O)OCC)ccc(C)c3oc-2c(C)c(=O)c1N (configuration not stated) the T/C (dose: 100.0 mg/kg/injection, schedule: Q04DX002 (ip), vehicle: saline with Tween-80) was 90 % of control, the T/C (dose: 200.0 mg/kg/injection, schedule: Q04DX002 (ip), vehicle: saline with Tween-80) was 101 % of control and the T/C (dose: 400.0 mg/kg/injection, schedule: Q04DX002 (ip), vehicle: saline with Tween-80) was 90 % of control.

For CCC1C(=O)NC(=O)C1(C)c1ccccc1 (configuration not stated), the T/C [16] was 191 % of control, the T/C [4] was 122 % of control and the T/C [5] was 120 % of control.

In the case of FC(F)(F)C(Cl)Br (configuration not stated), the T/C (dose: 100.0 mg/kg/injection, schedule: Q01DX001 (ip), vehicle: saline) is reported as 90 % of control, the T/C (dose: 150.0 mg/kg/injection, schedule: Q04DX003 (ip), vehicle: saline) is reported as 86 % of control and the T/C (dose: 200.0 mg/kg/injection, schedule: Q01DX001 (ip), vehicle: saline) is reported as 90 % of control. For the same compound, the T/C (dose: 225.0 mg/kg/injection, schedule: Q04DX003 (ip), vehicle: saline) was 100 % of control, the T/C (dose: 335.0 mg/kg/injection, schedule: Q04DX003 (ip), vehicle: saline) was 86 % of control and the T/C (dose: 400.0 mg/kg/injection, schedule: Q01DX001 (ip), vehicle: saline) was 100 % of control.

In the case of O=C1c2ccccc2S(=O)(=O)c2cc(-c3nn[nH]n3)ccc21, the T/C (dose: 50.0 mg/kg/injection, schedule: Q01DX009 (ip), vehicle: Klucel (hydroxypropylcellulose) (HPC)) is reported as 106 % of control, the T/C [11] is reported as 94 % of control and the T/C [13] is reported as 104 % of control.

In the case of O=C(COc1cccc(Cl)c1Cl)Nc1cccnc1, the T/C (dose: 37.5 mg/kg/injection, schedule: Q01DX001 (ip), vehicle: saline with Tween-80) is reported as 100 % of control, the T/C (dose: 75.0 mg/kg/injection, schedule: Q01DX001 (ip), vehicle: saline with Tween-80) is reported as 104 % of control and the T/C (dose: 150.0 mg/kg/injection, schedule: Q01DX001 (ip), vehicle: saline with Tween-80) is reported as 100 % of control.

In the case of CN(C)c1ccc(-c2cc(C(=O)O)c3cc4ccccc4cc3n2)cc1, the T/C (dose: 12.5 mg/kg/injection, schedule: Q01DX009 (ip), vehicle: saline with Tween-80) is reported as 97 % of control, the T/C (dose: 25.0 mg/kg/injection, schedule: Q01DX009 (ip), vehicle: saline with Tween-80) is reported as 97 % of control and the T/C [16] is reported as 94 % of control and 102 % of control. For the same compound, the T/C [4] was 98 % of control and 104 % of control.

O=S1(=O)CC(Cl)C(Cl)C1 (configuration not stated) was tested, and the T/C (dose: 3.12 mg/kg/injection, schedule: Q01DX009 (ip), vehicle: saline) was 90 % of control and 95 % of control, the T/C (dose: 4.5 mg/kg/injection, schedule: Q04DX003 (ip), vehicle: saline) was 118 % of control and the T/C [1] was 90 % of control. The T/C (dose: 9.0 mg/kg/injection, schedule: Q04DX003 (ip), vehicle: saline) was 104 % of control, the T/C [2] was 95 % of control and the T/C (dose: 18.0 mg/kg/injection, schedule: Q04DX003 (ip), vehicle: saline) was 113 % of control. For the same compound, the T/C (dose: 26.0 mg/kg/injection, schedule: Q04DX003 (ip), vehicle: saline) was 91 % of control.

In the case of NN=C(c1ccccc1)c1ccccc1, the T/C (dose: 20.93 mg/kg/injection, schedule: Q01DX009 (ip), vehicle: Klucel (hydroxypropylcellulose) (HPC)) is reported as 86 % of control, the T/C (dose: 31.25 mg/kg/injection, schedule: Q04DX003 (ip), vehicle: Klucel (hydroxypropylcellulose) (HPC)) is reported as 90 % of control and 104 % of control and the T/C (dose: 41.87 mg/kg/injection, schedule: Q01DX009 (ip), vehicle: Klucel (hydroxypropylcellulose) (HPC)) is reported as 95 % of control. For the same compound, the T/C (dose: 62.5 mg/kg/injection, schedule: Q04DX003 (ip), vehicle: Klucel (hydroxypropylcellulose) (HPC)) was 90 % of control, the T/C (dose: 125.0 mg/kg/injection, schedule: Q04DX003 (ip), vehicle: Klucel (hydroxypropylcellulose) (HPC)) was 90 % of control and the T/C (dose: 190.0 mg/kg/injection, schedule: Q04DX003 (ip), vehicle: Klucel (hydroxypropylcellulose) (HPC)) was 86 % of control.

C/C(c1nc(N)nc(N)c1-c1ccc(Cl)cc1)=[N+](\C)[O-] was tested, and the T/C [8] was 95 % of control, the T/C [9] was 104 % of control and the T/C [10] was 97 % of control.

In the case of CCCCNC(C)(C)C(=O)c1cccs1, the T/C [3] is reported as 100 % of control, the T/C (dose: 50.0 mg/kg/injection, schedule: Q01DX009 (ip), vehicle: saline) is reported as 100 % of control and the T/C (dose: 50.0 mg/kg/injection, schedule: Q04DX003 (ip), vehicle: saline) is reported as 100 % of control. For the same compound, the T/C (dose: 100.0 mg/kg/injection, schedule: Q01DX009 (ip), vehicle: saline) was 100 % of control and the T/C (dose: 100.0 mg/kg/injection, schedule: Q04DX003 (ip), vehicle: saline) was 118 % of control.
